Values after ≈ are worked out from the molar mass of the structure shown. Active and inactive are the calls of the source. The calls are words filed in the database; no cut-off is given here.
Tests used:
[1] = system: Bugula neritina; assay: Selectivity index, ratio of LC50 for Bugula neritina larvae to EC50 for antifouling activity against Bugula neritina larvae
[2] = system: Bugula neritina; assay: Antifouling activity against Bugula neritina assessed as inhibition of larval settlement after 1 hr by dissecting microscopy; format: functional
[3] = Antioxidant activity assessed as DPPH radical scavenging activity at 100 ug/ml after 30 mins; format: functional
[4] = system: Bugula neritina; assay: Antifouling activity against Bugula neritina larvae assessed as inhibition of larval settlement at 25 ug/ml after 1 hr by dissecting microscopy relative to control; format: functional
[5] = Antioxidant activity assessed as DPPH radical scavenging activity after 30 mins; format: functional
[6] = system: Human alphaherpesvirus 1; assay: Antiviral activity against HSV-1 infected in African green monkey Vero cells by plaque reduction assay; format: functional; details: for EC50: Human alphaherpesvirus 1, Vero
[7] = Cytotoxicity against African green monkey Vero cells assessed as reduction in cell viability by MTT assay; format: cell-based; details: chlorocebus sabaeus
[8] = Antioxidant activity assessed as ABTS radical cation scavenging activity by measuring trolox equivalents by ABTS radical cation decolorization assay; format: functional

SMILES	Activity [3]	inhibition at 25 µg/mL [4]	further results
Cc1c(O)cc(CC(=O)C[C@H](C)O)c(C=O)c1O	< 50%	72.4%	Selectivity Index [1]: >100; EC50 [2]: 3.4 µg/mL (≈ 13.5 µM)
Cc1cc(O)cc(Oc2cc(C)cc(O)c2O)c1 [CORDYOL C]	81.3 to 92.8%	10 to 38%	IC50 [5]: 52.3 µM
CCCCC[C@H](OC)c1c(O)cc2c(c1O)C(=O)c1c(O)cc(O)cc1C2=O	< 50%	10 to 38%	–
CCCCCC(c1c(C)cc(O)cc1O)c1c(O)cc2c(c1O)C(=O)c1c(O)cc(Oc3cc(C)cc(O)c3)cc1C2=O (racemic) [listing 1 of 2 here]	–	10 to 38%	–
Cc1c(O)cc2cc(C[C@H](C)O)oc(=O)c2c1O	< 50%	–	–
Nc1nc2c(ncn2COCCO)c(=O)[nH]1 [ACYCLOVIR]	–	–	EC50 [6]: 3 µM; CC50 [7]: > 1000 µM
COC(=O)c1c(O)ccc2oc3cc(C)cc(O)c3c(=O)c12	< 50%	10 to 38%	–
CCCCCC(c1c(C)cc(Oc2cc(C)cc(O)c2)cc1O)c1c(O)cc2c(c1O)C(=O)c1c(O)cc(O)cc1C2=O (stereo in doubt; (-)-7)	–	–	Activity [8]: 1.53 to 2 mmol/g
Cc1cc(OC(=O)c2c(C)cc(O)cc2O)cc(O)c1C(=O)O [LECANORIC ACID]	< 50%	10 to 38%	–
Cc1cc(O)cc(O)c1 [ORCINOL]	< 50%	10 to 38%	–
O=C1c2cc(O)cc(O)c2C(=O)c2c1cc(O)c([C@@H](CO)CCO)c2O	< 50%	10 to 38%	–
CCCCCC(c1c(C)cc(Oc2cc(C)cc(O)c2)cc1O)c1c(O)cc2c(c1O)C(=O)c1c(O)cc(O)cc1C2=O (stereo in doubt; (+)-7)	–	–	Activity [8]: 2.07 mmol/g
Cc1cc(O)c(O)c(Oc2cc(C)cc(O)c2Oc2cc(C)cc(O)c2O)c1	81.3 to 92.8%	80%	Selectivity Index [1]: >100; Activity [6]: inactive; EC50 [2]: 2.61 µg/mL (≈ 6.79 µM); IC50 [5]: 21.2 µM
CCCCCC(c1c(C)cc(Oc2cc(C)cc(O)c2)cc1O)c1c(O)cc2c(c1O)C(=O)c1c(O)cc(O)cc1C2=O (racemic) [listing 1 of 2 here]	< 50%	–	Activity [6]: inactive; Activity [8]: 2.11 mmol/g
CCCCCC(c1c(C)cc(O)cc1O)c1c(O)cc2c(c1O)C(=O)c1c(O)cc(Oc3cc(C)cc(O)c3)cc1C2=O (stereo in doubt; (-)-6)	–	–	Activity [8]: 1.65 mmol/g
CCCCCC(c1c(C)cc(O)cc1O)c1c(O)cc2c(c1O)C(=O)c1c(O)cc(Oc3cc(C)cc(O)c3)cc1C2=O (racemic) [listing 2 of 2 here]	< 50%	–	Activity [6]: inactive; Activity [8]: 2.27 mmol/g
Cc1cc(O)cc(Oc2cc(C)cc(O)c2)c1 [DIORCINOL]	< 50%	10 to 38%	–
O=C1O[C@H]([C@@H](O)CO)C(O)=C1O [ASCORBIC ACID]	–	–	IC50 [5]: 45.2 µM

SMILES	Activity [3]	inhibition at 25 µg/mL [4]	further results
COC(C)CC(=O)Cc1cc(O)c(C)c(O)c1C=O (racemic)	< 50%	–	–
CCCCCC(c1c(O)cc(C)cc1Oc1cc(C)cc(O)c1)c1c(O)cc2c(c1O)C(=O)c1c(O)cc(O)cc1C2=O (racemic)	< 50%	–	Activity [6]: inactive; Activity [8]: 2.18 mmol/g
CCCCCC(c1c(C)cc(Oc2cc(C)cc(O)c2)cc1O)c1c(O)cc2c(c1O)C(=O)c1c(O)cc(O)cc1C2=O (racemic) [listing 2 of 2 here]	–	10 to 38%	–
Cc1cc(O)c(Oc2cc(C)cc(O)c2Oc2cc(C)cc(O)c2O)c(O)c1	81.3 to 92.8%	70.6%	Selectivity Index [1]: >100; Activity [6]: inactive; EC50 [2]: 5.48 µg/mL (≈ 14.3 µM); IC50 [5]: 25.2 µM
C[C@H](O)CC[C@H](CO)c1c(O)cc2c(c1O)C(=O)c1c(O)cc(O)cc1C2=O	< 50%	–	EC50 [6]: 6.25 µM; CC50 [7]: 50.7 µM
CC(=O)CCCC(c1c(C)cc(Oc2cc(C)cc(O)c2)cc1O)c1c(O)cc2c(c1O)C(=O)c1c(O)cc(O)cc1C2=O (racemic)	< 50%	–	EC50 [6]: 4.68 µM; CC50 [7]: 109 µM; Activity [8]: 2.03 mmol/g
COC(=O)c1c(C)cc(Oc2cc(O)cc(C)c2C(=O)O)cc1O	< 50%	10 to 38%	–
COC(=O)c1c(C)cc(O)cc1O [METHYL ORSELLINATE]	< 50%	10 to 38%	–
CC(=O)CC[C@H](CO)c1c(O)cc2c(c1O)C(=O)c1c(O)cc(O)cc1C2=O	< 50%	10 to 38%	Activity [6]: inactive
Cc1cc(O)cc(O)c1C(=O)O [ORSELLINIC ACID]	< 50%	10 to 38%	–
Cc1cc(O)cc(OC(=O)c2c(C)cc(O)cc2O)c1 [LECANORIN]	< 50%	10 to 38%	–
Cc1cc(O)cc(Oc2cc(C)c(C(=O)OCC(O)CO)c(O)c2)c1 (racemic)	< 50%	91.2%	Selectivity Index [1]: >100; EC50 [2]: 1.28 µg/mL (≈ 3.67 µM)
Cc1cc(O)c(Oc2cc(C)cc(Oc3cc(C)cc(O)c3O)c2O)c(O)c1	81.3 to 92.8%	85.3%	Selectivity Index [1]: >100; Activity [6]: inactive; EC50 [2]: 1.59 µg/mL (≈ 4.14 µM); IC50 [5]: 18.9 µM
C[C@]12CCC[C@@H](O1)c1c(cc3c(c1O)C(=O)c1c(O)cc(O)cc1C3=O)O2	< 50%	10 to 38%	–
CC(=O)CC[C@H](COC(C)=O)c1c(O)cc2c(c1O)C(=O)c1c(O)cc(O)cc1C2=O	< 50%	10 to 38%	EC50 [6]: 3.12 µM; CC50 [7]: 65.1 µM
Cc1cc(O)cc(O)c1O	81.3 to 92.8%	10 to 38%	IC50 [5]: 35.1 µM
Cc1cc(O)c(Oc2cc(C)cc(O)c2O)c(O)c1	81.3 to 92.8%	10 to 38%	IC50 [5]: 31.2 µM

Source: ChEMBL document CHEMBL4000243, “Anti-HSV-1, antioxidant and antifouling phenolic compounds from the deep-sea-derived fungus Aspergillus versicolor SCSIO 41502” (Bioorg Med Chem Lett, 2017)
